Data on 16 molecules can be found in ChEMBL document CHEMBL1137954, “Carbonic anhydrase inhibitors: inhibition of the tumor-associated isozyme IX with fluorine-containing sulfonamides. The first subnanomolar CA IX inhibitor discovered” (Bioorg Med Chem Lett, 2004).

Among the targets are Carbonic anhydrase 9 (Homo sapiens, UniProt Q16790); Carbonic anhydrase 2 (Homo sapiens, UniProt P00918); Carbonic anhydrase 1 (Homo sapiens, UniProt P00915).

Carbonic anhydrase 1, sequence (P00915 whole entry): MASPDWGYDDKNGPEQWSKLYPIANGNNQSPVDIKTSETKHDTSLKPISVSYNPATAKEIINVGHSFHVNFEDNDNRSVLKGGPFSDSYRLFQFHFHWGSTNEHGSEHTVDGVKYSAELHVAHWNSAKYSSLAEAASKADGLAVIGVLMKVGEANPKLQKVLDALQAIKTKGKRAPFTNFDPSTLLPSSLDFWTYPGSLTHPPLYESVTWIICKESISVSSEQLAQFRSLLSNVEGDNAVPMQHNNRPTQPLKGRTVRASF
Description for Carbonic anhydrase 1: Inhibitory activity against human carbonic anhydrase I
Description for Carbonic anhydrase 2: Inhibitory activity against human carbonic anhydrase II
Description for Carbonic anhydrase 9: Inhibitory activity against human carbonic anhydrase IX

The term Ki denotes a dissociation constant, usually derived from enzyme kinetics or from competition with a known ligand. Lower therefore signals tighter binding. With `NS(=O)(=O)c1ccc(CNS(=O)(=O)c2c(F)c(F)cc(F)c2F)cc1`, the Ki on Carbonic anhydrase 9 stood at 8.5 nM; on Carbonic anhydrase 2, 12 nM; on Carbonic anhydrase 1, 860 nM.

Turning to `NS(=O)(=O)c1ccc(CCNS(=O)(=O)c2c(F)c(F)cc(F)c2F)cc1`, the Ki on Carbonic anhydrase 9 stood at 7 nM; at Carbonic anhydrase 2, 9 nM; on Carbonic anhydrase 1, 750 nM.

For the molecule `NS(=O)(=O)c1ccc(CNS(=O)(=O)c2ccc(NC(=O)c3c(F)c(F)cc(F)c3F)cc2)cc1`, the inhibition constant (Ki) on Carbonic anhydrase 2 came to 15 nM; at Carbonic anhydrase 1, 6100 nM.

In the case of `NS(=O)(=O)c1nnc(NS(=O)(=O)c2c(F)c(F)cc(F)c2F)s1`, the figures for the Ki at Carbonic anhydrase 9, on Carbonic anhydrase 2 and at Carbonic anhydrase 1 were 4.3 nM, 0.7 nM and 13 nM, respectively.

As to `NS(=O)(=O)c1ccc(CNC(=O)c2c(F)c(F)cc(F)c2F)cc1`, the Ki is 9.5 nM on Carbonic anhydrase 9, 13 nM on Carbonic anhydrase 2 and 980 nM at Carbonic anhydrase 1.

On to `NS(=O)(=O)c1ccc(NC(=O)c2c(F)c(F)cc(F)c2F)c(Cl)c1`, for which the Ki at Carbonic anhydrase 9 came to 16 nM; on Carbonic anhydrase 2, 76 nM; at Carbonic anhydrase 1, 1080 nM.

In the case of `NS(=O)(=O)c1ccc(NC(=O)c2c(F)c(F)cc(F)c2F)c(F)c1`, the Ki at Carbonic anhydrase 9 was 24 nM; on Carbonic anhydrase 2, 1.5 nM; at Carbonic anhydrase 1 it was 760 nM.

In the case of `NS(=O)(=O)c1ccc(NC(=O)c2c(F)c(F)cc(F)c2F)c(Br)c1`, the figures for the inhibition constant (Ki) on Carbonic anhydrase 9, on Carbonic anhydrase 2 and on Carbonic anhydrase 1 were 4.8 nM, 84 nM and 1870 nM, respectively.

Take `NS(=O)(=O)c1ccccc1NC(=O)c1c(F)c(F)cc(F)c1F`: the inhibition constant Ki at Carbonic anhydrase 9 was 9.5 nM; at Carbonic anhydrase 2 it was 38 nM; at Carbonic anhydrase 1, 1500 nM.

With `NS(=O)(=O)c1nnc(NC(=O)c2c(F)c(F)cc(F)c2F)s1`, the values for the Ki at Carbonic anhydrase 9, on Carbonic anhydrase 2 and on Carbonic anhydrase 1 were 12.6 nM, 2.1 nM and 250 nM, respectively.

`NS(=O)(=O)c1ccc(NC(=O)c2c(F)c(F)cc(F)c2F)cc1`: the Ki on Carbonic anhydrase 9 turned out to be 15.2 nM; at Carbonic anhydrase 2, 16 nM; on Carbonic anhydrase 1 it was 975 nM.

With `Cn1nc(S(N)(=O)=O)s/c1=N\C(=O)c1c(F)c(F)cc(F)c1F`, the values for the Ki on Carbonic anhydrase 9, at Carbonic anhydrase 2 and on Carbonic anhydrase 1 were 10.5 nM, 1.4 nM and 270 nM, respectively.

Regarding `NS(=O)(=O)c1ccc(CCNS(=O)(=O)c2ccc(NC(=O)c3c(F)c(F)cc(F)c3F)cc2)cc1`, the inhibitory constant (Ki) on Carbonic anhydrase 9 is 7.6 nM; on Carbonic anhydrase 2 it was 13 nM; at Carbonic anhydrase 1, 6000 nM.

Consider `NS(=O)(=O)c1cccc(NC(=O)c2c(F)c(F)cc(F)c2F)c1`, for which the Ki at Carbonic anhydrase 9 is 0.8 nM; on Carbonic anhydrase 2 it was 21 nM; on Carbonic anhydrase 1, 1700 nM.

Turning to `NS(=O)(=O)c1ccc(CCNC(=O)c2c(F)c(F)cc(F)c2F)cc1`, the Ki on Carbonic anhydrase 9 was 7.3 nM; on Carbonic anhydrase 2, 12 nM; on Carbonic anhydrase 1, 900 nM.

On to `NS(=O)(=O)c1ccc(NS(=O)(=O)c2ccc(NC(=O)c3c(F)c(F)cc(F)c3F)cc2)cc1`, for which the Ki at Carbonic anhydrase 9 is 3.2 nM; at Carbonic anhydrase 2 it was 19 nM; on Carbonic anhydrase 1, 6300 nM.
